The text below walks through data of ChEMBL document CHEMBL5154661, “Novel 2-phenyl-3-(Pyridin-2-yl) thiazolidin-4-one derivatives as potent inhibitors for proliferation of osteosarcoma cells in vitro and in vivo” (Eur J Med Chem, 2022).

Data set [1] has as its system HOS-TE85. Kind of data set: Antiproliferative activity against human MNNG/HOS cells assessed as cell growth inhibition measured after 72 hrs by CCK-8 assay. The class given is functional, cell-based. To be noted: HOS-TE85, 72 h. (In general: Tetrazolium dyes change colour on reduction, which living cells bring about.)
A short description of data set [2]: Kinetic solubility of compound at pH 6.8 by turbidimetry method. The following applies: buffer, read-out: Kinetic_solubility. The class given is physicochemical.
Data set [3] can be described thus: Microsomal stability in mouse liver microsomes assessed as intrinsic clearance at 0.1 uM incubated for 10 mins in presence of NADPH by LC-MS/MS analysis. The class given is ADME, Microsome.
Data set [4] can be described thus: Kinetic solubility of compound at pH 7.4 by turbidimetry method. The class given is physicochemical. To be noted: buffer, read-out: Kinetic_solubility.
A short description of data set [5]: Microsomal stability in human liver microsomes assessed as intrinsic clearance at 0.1 uM incubated for 10 mins in presence of NADPH by LC-MS/MS analysis. The class given is ADME, Microsome. In general terms: Liver microsomes are vesicles of endoplasmic reticulum, rich in cytochrome P450 enzymes.
Data set [6] can be described thus: Microsomal stability in rat liver microsomes assessed as intrinsic clearance at 0.1 uM incubated for 10 mins in presence of NADPH by LC-MS/MS analysis. The class given is ADME, Microsome.

Structures are written as SMILES. Converted amounts (≈) assume the structure as drawn.

Regarding `COc1ccccc1N1C(=O)CSC1c1cccc(C(=O)NCCCCN2CCN(C(=O)OC(C)(C)C)CC2)c1` (centres undefined), the IC50 (commonly the concentration needed to halve the response being measured) in data set [1] is > 1000 nM.
On the same count and under the same terms, as for `CCOC(=O)c1sc(N2C(=O)CSC2c2cccc(C(=O)NCCCCn3cccn3)c2)nc1C` (centres undefined), the figure is 430 nM; as for `COc1ccccc1N1C(=O)CSC1c1cccc(C(=O)NCCCCc2ccc(Cl)cc2)c1` (centres undefined), 78.6 nM; as for `COc1ccccc1N1C(=O)CSC1c1cccc(C(=O)NCCCCn2cncn2)c1` (centres undefined), > 1000 nM.
In the case of `O=C(NCCCCc1ccccc1)c1cccc(C2SCC(=O)N2c2ccc(C3CC3)cc2)c1` (centres undefined), the solubility kinetic in data set [2] and in data set [4] was 2 µM (≈ 0.941 µg/mL) in each case. For the same molecule, the IC50 in data set [1] turned out to be 217 nM. Moreover, the “intrinsic clearance (CLint)” value in data set [3] stood at 2962 mL/min/g; in data set [5], 811 mL/min/g; in data set [6], 2275 mL/min/g.
As to `O=C(NCCCc1ccccc1)c1cccc(C2SCC(=O)N2c2ccc(C3CC3)cc2)c1` (centres undefined), the IC50 in data set [1] is > 1000 nM.
For `C#Cc1cc(C(=O)NCCCCc2ccccc2)cc(C2SCC(=O)N2c2ccccc2OC)c1` (centres undefined), the solubility kinetic in data set [2] and in data set [4] was 10 µM (≈ 4.85 µg/mL) in each case. Also, in data set [1], the IC50 came to 40.8 nM. Also, the figures for the “intrinsic clearance (CLint)” value in data set [3], in data set [5] and in data set [6] were 2490 mL/min/g, 1727 mL/min/g and 2204 mL/min/g, respectively.
With `O=C(NCCCCc1ccccc1)c1cccc(C2SCC(=O)N2c2ccccn2)c1` (centres undefined), the solubility kinetic in data set [2] and in data set [4] was 20 µM (≈ 8.63 µg/mL) throughout. For the same molecule, the IC50 in data set [1] was 19.7 nM. The entries for the “intrinsic clearance (CLint)” value in data set [3], in data set [5] and in data set [6] were 644 mL/min/g, 412 mL/min/g and 1482 mL/min/g, respectively.
Take `CC1SC(c2cccc(C(=O)NCCCCc3ccc(Cl)cc3)c2)N(c2ccc(C3CC3)cc2)C1=O` (centres undefined): the IC50 in data set [1] is > 1000 nM.
Turning to `O=C(NCCCCc1ccccc1)c1cccc(C2SCC(=O)N2c2cnccn2)c1` (centres undefined), in data set [1], the IC50 was > 1000 nM.
Regarding `O=C(NCCCCc1ccccc1)c1cccc(C2SCC(=O)N2c2nccs2)c1` (centres undefined), the IC50 in data set [1] is > 1000 nM.
`COc1ccccc1N1C(=O)CSC1c1cccc(C(=O)NCCCCc2cccs2)c1` (centres undefined): in data set [1], the IC50 was 46 nM.
Same read-out and setting: then `O=C(NCCCCn1cccn1)c1cccc(C2SCC(=O)N2c2cccnc2)c1` (centres undefined), with > 1000 nM.
On the same count and under the same terms, then `COc1ccccc1N1C(=O)CSC1c1cc(C(=O)NCCCCc2ccccc2)cc(C2CC2)c1` (centres undefined), with 23.5 nM.
In the case of `COc1ccccc1N1C(=O)CSC1c1cc(F)cc(C(=O)NCCCCc2ccccc2)c1` (centres undefined), the solubility kinetic in data set [2] and in data set [4] was 10 µM (≈ 4.79 µg/mL) each time. In data set [1], the IC50 was 40.9 nM. Besides, the “intrinsic clearance (CLint)” value was found to be 1434 mL/min/g in data set [3], 2076 mL/min/g in data set [5] and 3259 mL/min/g in data set [6].
Take `O=C(NCCCCn1cccn1)c1cccc(C2SCC(=O)N2c2cc(Br)ccn2)c1` (centres undefined): the IC50 in data set [1] is 105 nM.
Same read-out and setting: as for `O=C(NCCCCn1cccn1)c1cccc(C2SCC(=O)N2c2cc(Cl)ccn2)c1` (centres undefined), the figure is 36.4 nM.
Still for that read-out and setting: then `O=C(NCCCCc1ccccc1)c1cccc(C2SCC(=O)N2c2ccc(N3CCOCC3)cc2)c1` (centres undefined), with > 1000 nM; and `O=C(NCCCCn1cccn1)c1cccc(C2SCC(=O)N2c2cccc(C3CC3)c2)c1` (centres undefined), with 298 nM.
For the molecule `CC1SC(c2cccc(C(=O)NCCCCc3ccccc3)c2)N(c2ccc(C3CC3)cc2)C1=O` (centres undefined), the figures for the solubility kinetic in data set [2] and in data set [4] were 10 µM (≈ 4.85 µg/mL) and 2 µM (≈ 0.969 µg/mL), respectively. Moreover, the IC50 in data set [1] stood at 191 nM. Also, the “intrinsic clearance (CLint)” value worked out at 3212 mL/min/g in data set [3], 2013 mL/min/g in data set [5] and 3129 mL/min/g in data set [6].
In the case of `CC(C)(C)c1conc1N1C(=O)CSC1c1cccc(C(=O)NCCCCc2ccccc2)c1` (centres undefined), the IC50 in data set [1] was > 1000 nM.
Turning to `O=C(NCCCCn1cccn1)c1cccc(C2SCC(=O)N2c2ccncc2)c1` (centres undefined), the IC50 in data set [1] was > 1000 nM.
In the case of `CCN(CC)c1ccc(N2C(=O)CSC2c2cccc(C(=O)NCCCCc3ccccc3)c2)cc1` (centres undefined), in data set [1], the IC50 is > 1000 nM.
On the same count and under the same terms, then `CCC1(c2ccc(N3C(=O)CSC3c3cccc(C(=O)NCCCCn4cccn4)c3)cc2)CCC(=O)NC1=O` (centres undefined), with > 1000 nM.
The same measure, in the same setting: as for `COc1ccccc1N1C(=O)CSC1c1cccc(C(=O)NCCCCn2cccn2)c1` (centres undefined), the figure is 91.7 nM; as for `O=C(NCCc1ccccc1)c1cccc(C2SCC(=O)N2c2ccc(C3CC3)cc2)c1` (centres undefined), > 1000 nM.
For `O=C(NCCCCn1cccn1)c1cccc(C2SCC(=O)N2c2ccccn2)c1` (centres undefined), the solubility kinetic in data set [2] and in data set [4] was 50 µM (≈ 21.1 µg/mL) each time. The IC50 in data set [1] was determined as 60.3 nM. Also, the “intrinsic clearance (CLint)” value in data set [3] turned out to be 304 mL/min/g; in data set [5], 82.1 mL/min/g; in data set [6], 506 mL/min/g.
Turning to `O=C(NCCCCc1ccccc1)c1cc(F)cc(C2SCC(=O)N2c2ccccn2)c1` (centres undefined), the IC50 in data set [1] came out at 14.2 nM.
For `CC1SC(c2cccc(C(=O)NCCCCc3ccc(Cl)cc3)c2)N(c2cccc(C3CC3)c2)C1=O` (centres undefined), the IC50 in data set [1] came out at 932 nM.
On to `O=C(NCCCCc1ccccc1)c1cccc(C2SCC(=O)N2c2cccc(C3CC3)c2)c1` (centres undefined), for which the solubility kinetic in data set [2] and in data set [4] was 10 µM (≈ 4.71 µg/mL) throughout. For the same molecule, in data set [1], the IC50 turned out to be 299 nM. Moreover, the results for the “intrinsic clearance (CLint)” value in data set [3], in data set [5] and in data set [6] were 2943 mL/min/g, 2069 mL/min/g and 3543 mL/min/g, respectively.
Consider `COc1ccccc1N1C(=O)CSC1c1cccc(C(=O)NCCCCn2ccc3ccccc32)c1` (centres undefined), for which, in data set [1], the IC50 was found to be 286 nM.
With `O=C(NCCCCc1ccccc1)c1cccc(C2SCC(=O)N2c2ccc(-c3ccccc3)cc2)c1` (centres undefined), the IC50 in data set [1] is > 1000 nM.
Take `COc1ccc(F)cc1N1C(=O)CSC1c1cccc(C(=O)NCCCCn2cccn2)c1` (centres undefined): the solubility kinetic in data set [2] and in data set [4] was 50 µM (≈ 23.4 µg/mL) throughout. Moreover, the IC50 in data set [1] is 97.3 nM. For the same molecule, the “intrinsic clearance (CLint)” value is 1312 mL/min/g in data set [3], 421 mL/min/g in data set [5] and 1472 mL/min/g in data set [6].
On to `COc1ccccc1N1C(=O)CSC1c1cccc(C(=O)NCCCCN2C(=O)C=CC2=O)c1` (centres undefined), for which, in data set [1], the IC50 is > 1000 nM.
Turning to `O=C(NCCCCn1cccn1)c1cccc(C2SCC(=O)N2c2cc(F)ccn2)c1` (centres undefined), the solubility kinetic in data set [2] and in data set [4] was 50 µM (≈ 22 µg/mL) throughout. Moreover, the IC50 in data set [1] amounted to 33.2 nM. The “intrinsic clearance (CLint)” value is 397 mL/min/g in data set [3], 116.4 mL/min/g in data set [5] and 1198 mL/min/g in data set [6].
With `CC1SC(c2cccc(C(=O)NCCCCc3ccccc3)c2)N(c2cccc(C3CC3)c2)C1=O` (centres undefined), the IC50 in data set [1] was 295 nM.
As to `O=C(NCCCCc1ccccc1)c1cccc(C2SCC(=O)N2c2cccc(-c3c[nH]nn3)c2)c1` (centres undefined), the solubility kinetic in data set [2] and in data set [4] was 20 µM (≈ 9.95 µg/mL) throughout. Besides, the IC50 in data set [1] came out at 110 nM. For the same molecule, the “intrinsic clearance (CLint)” value in data set [3] is 951 mL/min/g; in data set [5] it was 261 mL/min/g; in data set [6], 742 mL/min/g.
Regarding `Cc1ccnc(N2C(=O)CS[C@H]2c2cccc(C(=O)NCCCCn3cccn3)c2)c1`, in data set [1], the IC50 was > 10000 nM.
Take `COc1ccccc1N1C(=O)CSC1c1cc(C)cc(C(=O)NCCCCc2ccccc2)c1` (centres undefined): the IC50 in data set [1] is 16.2 nM.
